# Assay results as given in US7807662B2, “Platinum IV complex inhibitor” (University of South Florida, priority 2004, dated 2010).
# Tests used:
# Stat5 = assay: In vitro DNA-binding activity assay with EMSA, Stat5; assay type: biochemical; details: MGFe probe
# Procedure: (§1) Nuclear extract preparation and gel shift assays—Nuclear extract preparation from v-Src-transformed fibroblasts (NIH3T3/v-Src) or tumor cell lines and electrophoretic mobility shift assay were carried out as previously described (11, 13, 37). The ^32P-labeled oligonucleotide probes used were hSIE (high affinity sis-inducible element, m67 variant, 5′-[…]) (SEQ ID NO:1) that bound Stat1 and Stat3 (13, 45) and MGFe (mammary gland factor element from the bovine β-casein gene promoter, 5′-AGATTTCTAGGAATTCAA) (SEQ ID NO:2) for Stat1 and Stat5 binding (46, 47). Except where indicated, inhibitor compound was pre-incubated with the nuclear extract for 30 minutes at room temperature prior to incubation with radiolabeled probe.
# (§2) Compounds from the NCI diversity set were evaluated for inhibition of Stat3 signaling in in vitro DNA-binding activity assay with analysis of electrophoretic mobility shift assay (EMSA). A platinum (IV) complex, IS3 295 (NSC 295558) (FIG. 1E), was identified as potent inhibitor of Stat3, which was further characterized in a number of assays for its anti-Stat3 property. […]
# E2F1 = E2F1 (Homo sapiens, UniProt Q01094); assay: In vitro DNA-binding activity assay with EMSA, E2F1 (control); assay type: biochemical; details: DHFR promoter sequence probe
# From the text: In control studies, the effect of IS3 295 was investigated on the DNA-binding activity of E2F1 that was unrelated to Stat proteins.
# Stat3 [1] = biological target: T1, Stat3 (Homo sapiens, UniProt P40763); assay: In vitro DNA-binding activity assay with EMSA, Stat3; assay type: biochemical; details: hSIE probe, pre-incubation with compound
# T1 construct: nuclear extracts of equal total protein containing active Stat1, Stat3 and Stat5 were pre-incubated with different concentrations of IS3 295; endogenous in cells; host or cells: nuclear extracts
# Procedure: as §1, §2
# Stat1 = biological target: T2, Stat1 (Homo sapiens, UniProt P42224); assay: In vitro DNA-binding activity assay with EMSA, Stat1; assay type: biochemical; details: hSIE probe, pre-incubation with compound
# T2 construct: nuclear extracts of equal total protein containing active Stat1, Stat3 and Stat5 were pre-incubated with different concentrations of IS3 295; endogenous in cells; host or cells: nuclear extracts
# T2 sequence (P42224 2-750 limits assumed): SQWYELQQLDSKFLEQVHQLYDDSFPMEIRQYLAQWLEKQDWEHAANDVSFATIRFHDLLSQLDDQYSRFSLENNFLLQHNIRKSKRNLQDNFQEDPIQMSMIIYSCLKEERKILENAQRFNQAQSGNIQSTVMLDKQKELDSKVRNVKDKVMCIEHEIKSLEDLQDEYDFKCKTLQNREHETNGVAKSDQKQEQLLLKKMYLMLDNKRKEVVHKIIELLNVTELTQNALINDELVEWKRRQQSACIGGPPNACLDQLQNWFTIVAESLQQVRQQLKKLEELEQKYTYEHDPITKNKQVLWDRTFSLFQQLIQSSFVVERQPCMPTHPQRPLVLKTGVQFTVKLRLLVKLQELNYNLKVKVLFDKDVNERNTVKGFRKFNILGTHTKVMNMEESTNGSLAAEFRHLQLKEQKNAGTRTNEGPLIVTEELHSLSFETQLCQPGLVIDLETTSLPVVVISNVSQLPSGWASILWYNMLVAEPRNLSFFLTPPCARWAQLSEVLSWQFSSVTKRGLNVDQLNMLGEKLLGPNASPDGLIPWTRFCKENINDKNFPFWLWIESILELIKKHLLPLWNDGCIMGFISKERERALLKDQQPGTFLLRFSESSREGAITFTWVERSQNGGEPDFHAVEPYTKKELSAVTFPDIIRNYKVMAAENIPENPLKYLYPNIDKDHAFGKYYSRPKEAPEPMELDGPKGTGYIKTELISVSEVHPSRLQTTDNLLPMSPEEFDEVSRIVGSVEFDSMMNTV
# Procedure: as §1, §2
# Stat3 [2] = biological target: T1, Stat3; details: from reference 35; cited from earlier work
# T1 sequence (P40763 2-770 limits assumed, species assumed): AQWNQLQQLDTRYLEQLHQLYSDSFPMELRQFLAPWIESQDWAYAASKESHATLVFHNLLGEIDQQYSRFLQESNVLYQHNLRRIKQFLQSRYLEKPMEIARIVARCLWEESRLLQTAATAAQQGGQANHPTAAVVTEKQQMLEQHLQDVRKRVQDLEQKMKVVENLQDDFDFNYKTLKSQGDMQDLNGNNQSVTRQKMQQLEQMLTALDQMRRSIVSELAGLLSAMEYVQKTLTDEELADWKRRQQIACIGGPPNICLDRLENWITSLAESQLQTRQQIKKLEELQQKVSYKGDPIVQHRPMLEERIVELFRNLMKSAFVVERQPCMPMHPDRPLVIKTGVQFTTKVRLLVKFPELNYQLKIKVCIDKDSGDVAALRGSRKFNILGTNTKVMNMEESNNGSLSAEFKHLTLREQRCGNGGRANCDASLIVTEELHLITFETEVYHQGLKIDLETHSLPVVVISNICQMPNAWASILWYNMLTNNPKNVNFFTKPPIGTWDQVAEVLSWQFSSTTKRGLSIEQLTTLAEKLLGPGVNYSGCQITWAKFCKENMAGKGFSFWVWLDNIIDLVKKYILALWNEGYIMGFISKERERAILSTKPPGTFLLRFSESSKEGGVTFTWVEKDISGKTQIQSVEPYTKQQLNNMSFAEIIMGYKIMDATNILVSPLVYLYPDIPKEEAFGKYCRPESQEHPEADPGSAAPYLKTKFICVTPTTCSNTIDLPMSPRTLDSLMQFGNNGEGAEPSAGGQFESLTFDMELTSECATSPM
# E2F1, sequence (Q01094 whole entry, species assumed): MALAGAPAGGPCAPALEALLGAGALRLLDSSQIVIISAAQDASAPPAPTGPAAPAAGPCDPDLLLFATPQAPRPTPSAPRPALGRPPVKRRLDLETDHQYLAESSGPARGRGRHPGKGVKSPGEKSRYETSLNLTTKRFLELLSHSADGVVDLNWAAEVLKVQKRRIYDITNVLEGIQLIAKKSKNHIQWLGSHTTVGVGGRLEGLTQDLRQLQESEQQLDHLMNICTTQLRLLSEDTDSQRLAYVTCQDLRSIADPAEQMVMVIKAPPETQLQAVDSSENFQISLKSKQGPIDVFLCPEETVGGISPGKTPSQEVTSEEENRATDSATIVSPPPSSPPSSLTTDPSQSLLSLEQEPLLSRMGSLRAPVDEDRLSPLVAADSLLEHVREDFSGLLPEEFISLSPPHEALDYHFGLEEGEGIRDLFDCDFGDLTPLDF
compound,measurement,setting,value
"N.N.[Cl][Pt][Cl] [cisplatin, reference compound]",level of DNA-binding activity of Stat5:Stat5 dimers,Stat5,no detectable effect
same,E2F1 DNA-binding activity,E2F1,no detectable effect
same,level of DNA-binding activity of Stat3,Stat3 [1],no detectable effect
same,level of DNA-binding activity of Stat1,Stat1,no detectable effect
same,effect on Stat3 activity,Stat3 [2],no effect
